Reference: patent US20250179065A1, “HDAC6 INHIBITORS AND USES THEREOF” (Eikonizo Therapeutics, Inc., priority 2022, published 2025)

Assays:
[1] = biological target: Full length Human HDAC8 (Homo sapiens (Human), UniProt Q9BY41); assay: Caliper endpoint assay for HDAC enzymatic activity (HDAC8); format: biochemical; conditions: in vitro enzymatic, 30 min pre-incubation, 1 μM FAM-RHKK(TFAc)-NH2 substrate
[2] = biological target: Full length Human HDAC6 (Homo sapiens (Human), UniProt Q9UBN7); assay: Caliper endpoint assay for HDAC enzymatic activity (HDAC6); format: biochemical; conditions: for IC50: in vitro enzymatic, 30 min pre-incubation, 1 μM FAM-RHKK(Ac)-NH2 substrate; for Selectivity (6 v 8) (fold): ratio of HDAC8 IC50/HDAC6 IC50
Chain of Full length Human HDAC6 (Q9UBN7 whole entry): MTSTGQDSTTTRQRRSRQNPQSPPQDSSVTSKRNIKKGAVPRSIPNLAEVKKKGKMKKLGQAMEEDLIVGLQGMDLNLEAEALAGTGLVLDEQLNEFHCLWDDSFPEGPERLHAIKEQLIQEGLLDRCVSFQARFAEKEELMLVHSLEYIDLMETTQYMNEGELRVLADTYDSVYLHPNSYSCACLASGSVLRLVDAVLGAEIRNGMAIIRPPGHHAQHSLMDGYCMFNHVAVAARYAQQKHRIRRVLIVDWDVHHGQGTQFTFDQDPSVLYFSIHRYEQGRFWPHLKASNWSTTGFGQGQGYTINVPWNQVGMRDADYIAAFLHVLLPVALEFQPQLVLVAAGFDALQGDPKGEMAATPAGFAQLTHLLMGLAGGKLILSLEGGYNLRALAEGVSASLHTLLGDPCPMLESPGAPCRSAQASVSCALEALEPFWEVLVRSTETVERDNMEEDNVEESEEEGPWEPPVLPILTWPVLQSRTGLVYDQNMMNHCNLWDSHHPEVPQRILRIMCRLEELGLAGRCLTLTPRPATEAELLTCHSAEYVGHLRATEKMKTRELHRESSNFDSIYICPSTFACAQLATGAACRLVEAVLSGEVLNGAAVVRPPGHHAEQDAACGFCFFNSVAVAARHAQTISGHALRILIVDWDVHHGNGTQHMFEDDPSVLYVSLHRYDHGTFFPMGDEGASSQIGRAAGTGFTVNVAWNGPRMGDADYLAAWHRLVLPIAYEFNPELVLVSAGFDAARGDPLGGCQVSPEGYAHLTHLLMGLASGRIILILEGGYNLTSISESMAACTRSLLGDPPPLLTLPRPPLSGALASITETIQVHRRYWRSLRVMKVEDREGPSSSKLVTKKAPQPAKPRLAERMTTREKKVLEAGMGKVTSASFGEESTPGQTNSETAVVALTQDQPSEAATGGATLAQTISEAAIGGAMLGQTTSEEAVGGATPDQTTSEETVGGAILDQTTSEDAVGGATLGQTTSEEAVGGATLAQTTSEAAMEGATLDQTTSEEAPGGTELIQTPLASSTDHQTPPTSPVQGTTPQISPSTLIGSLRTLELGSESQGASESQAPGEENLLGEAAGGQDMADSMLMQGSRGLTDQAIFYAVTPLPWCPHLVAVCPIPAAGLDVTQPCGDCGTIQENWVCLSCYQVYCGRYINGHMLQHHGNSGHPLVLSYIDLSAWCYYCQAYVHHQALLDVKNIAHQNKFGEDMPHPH

Chain of Full length Human HDAC8 (Q9BY41 whole entry): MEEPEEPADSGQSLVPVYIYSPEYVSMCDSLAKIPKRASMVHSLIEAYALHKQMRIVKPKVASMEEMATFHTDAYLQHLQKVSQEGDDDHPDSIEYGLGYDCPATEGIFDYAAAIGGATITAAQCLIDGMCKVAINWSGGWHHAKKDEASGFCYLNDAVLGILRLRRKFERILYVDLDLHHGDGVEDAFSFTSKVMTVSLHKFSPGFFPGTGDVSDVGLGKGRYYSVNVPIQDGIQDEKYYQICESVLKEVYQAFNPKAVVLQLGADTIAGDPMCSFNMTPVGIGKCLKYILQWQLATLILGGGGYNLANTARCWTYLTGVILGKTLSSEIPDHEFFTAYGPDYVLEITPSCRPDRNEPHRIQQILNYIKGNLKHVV

| Structure (SMILES) | IC50 [1] | IC50 [2] | Selectivity (6 v 8) (fold) [2] |
| --- | --- | --- | --- |
| O=C(NO)c1cnc2c(c1)CCN([C@@H]1CCCC3(CCC3)C1)C2 (single isomer, unassigned) [Compound 194] | 10000 to 100000 nM | 100 to 1000 nM | III (III: >10-100) |
| O=C(NO)c1cnc2c(c1)CCN([C@H]1CCCC3(CCC3)C1)C2 (single isomer, unassigned) [Compound 195] | 1000 to 10000 nM | 1 to 100 nM | IV (IV: >100-1000) |
| O=C(NO)c1cnc2c(c1)CCN(C1CC3(CCCNC3)C1)C2 (single isomer, unassigned) [Compound 341] | 10000 to 100000 nM | – | – |
| O=C(NO)c1cnc2c(c1)CCN(C1CC3(CCCNC3)C1)C2 (single isomer, unassigned) [Compound 342] | 10000 to 100000 nM | – | – |
| CN1CCC[C@]2(C1)C[C@@H](N1CCc3cc(C(=O)NO)cnc3C1)C2 (single isomer, unassigned) [Compound 343] | 1000 to 10000 nM | 100 to 1000 nM | III (III: >10-100) |
| CN1CCC[C@]2(C1)C[C@H](N1CCc3cc(C(=O)NO)cnc3C1)C2 (single isomer, unassigned) [Compound 344] | 1000 to 10000 nM | 100 to 1000 nM | III (III: >10-100) |
| O=C(NO)c1cnc2c(c1)CCN([C@H]1CCC3(CCC3)C1)C2 (single isomer, unassigned) [Compound 383] | 10000 to 100000 nM | 1 to 100 nM | IV (IV: >100-1000) |
| O=C(NO)c1cnc2c(c1)CCN(CC13CC4CC(CC(C4)O1)C3)C2 [Compound 14] | 10000 to 100000 nM | 1 to 100 nM | IV (IV: >100-1000) |
| O=C(NO)c1cnc2c(c1)CCN(C1CC3(CCCCC3)C1)C2 [Compound 16, N-hydroxy-7-(spiro[3.5]nonan-2-yl)-5,6,7,8-tetrahydro-1,7-naphthyridine-3-carboxamide] | 10000 to 100000 nM | 1 to 100 nM | IV (IV: >100-1000) |
| O=C(NO)c1cnc2c(c1)CCN(C1CC3(CCOCC3)C1)C2 [Compound 179, N-hydroxy-7-(7-oxaspiro[3.5]nonan-2-yl)-5,6,7,8-tetrahydro-1,7-naphthyridine-3-carboxamide] | 1000 to 10000 nM | 100 to 1000 nM | III (III: >10-100) |
| O=C(NO)c1cnc2c(c1)CCN(C1CC3(CCCC3)C1)C2 [Compound 183, N-hydroxy-7-(spiro[3.4]octan-2-yl)-5,6,7,8-tetrahydro-1,7-naphthyridine-3-carboxamide] | 1000 to 10000 nM | 1 to 100 nM | IV (IV: >100-1000) |
| O=C(NO)c1cnc2c(c1)CCN([C@H]1C[C@@]3(CCOC3)C1)C2 [Compound 188, N-hydroxy-7-((2r,4r)-6-oxaspiro[3.4]octan-2-yl)-5,6,7,8-tetrahydro-1,7-naphthyridine-3-carboxamide] | 10000 to 100000 nM | 100 to 1000 nM | IV (IV: >100-1000) |
| O=C(NO)c1cnc2c(c1)CCN([C@H]1C[C@]3(CCOC3)C1)C2 [Compound 189, N-hydroxy-7-((2s,4s)-6-oxaspiro[3.4]octan-2-yl)-5,6,7,8-tetrahydro-1,7-naphthyridine-3-carboxamide] | 10000 to 100000 nM | 100 to 1000 nM | IV (IV: >100-1000) |
| O=C(NO)c1cnc2c(c1)CCN(C1CCC3(CCC3)CC1)C2 [Compound 192, N-hydroxy-7-(spiro[3.5]nonan-7-yl)-5,6,7,8-tetrahydro-1,7-naphthyridine-3-carboxamide] | 1000 to 10000 nM | 1 to 100 nM | IV (IV: >100-1000) |
| O=C(NO)c1cnc2c(c1)CCN(C1CC3(CCNCC3)C1)C2 [Compound 197, N-hydroxy-7-(7-azaspiro[3.5]nonan-2-yl)-5,6,7,8-tetrahydro-1,7-naphthyridine-3-carboxamide] | 10000 to 100000 nM | 100 to 1000 nM | III (III: >10-100) |
| CN1CCC2(CC1)CC(N1CCc3cc(C(=O)NO)cnc3C1)C2 [Compound 198, N-hydroxy-7-(7-methyl-7-azaspiro[3.5]nonan-2-yl)-5,6,7,8-tetrahydro-1,7-naphthyridine-3-carboxamide] | 1000 to 10000 nM | 100 to 1000 nM | III (III: >10-100) |
| CC(=O)N1CCC2(CC1)CC(N1CCc3cc(C(=O)NO)cnc3C1)C2 [Compound 199, 7-(7-acetyl-7-azaspiro[3.5]nonan-2-yl)-N-hydroxy-5,6,7,8-tetrahydro-1,7-naphthyridine-3-carboxamide] | 10000 to 100000 nM | 100 to 1000 nM | III (III: >10-100) |
| O=C(NO)c1cnc2c(c1)CCN(C1CC3(CNC3)C1)C2 [Compound 289] | 10000 to 100000 nM | 100 to 1000 nM | III (III: >10-100) |
| CN1CCC2(CCC(N3CCc4cc(C(=O)NO)cnc4C3)C2)CC1 (centres unmarked) [Compound 417] | 1000 to 10000 nM | 100 to 1000 nM | III (III: >10-100) |
| O=C(NO)c1cc2c(cn1)CN(C1CC3(CCCCC3)C1)CC2 [DDD] | 10000 to 100000 nM | 1000 to 10000 nM | III (III: >10-100) |
| O=C(NO)c1ccc2c(n1)CCN(C1CC3(CCCCC3)C1)C2 [EEE] | > 100000 nM | 100 to 1000 nM | V (V: >1000) |
| O=C(NO)c1ncc2c(n1)CCN(C1CC3(CCCCC3)C1)C2 [FFF, N-hydroxy-6-(spiro[3.5]nonan-2-yl)-5,6,7,8-tetrahydropyrido[4,3-d]pyrimidine-2-carboxamide] | > 100000 nM | > 100000 nM | II (II: >1-10) |
